Data from patent publication US10835500B2, “Medicament for accelerated wound healing” (Symrise AG, priority 2014, dated 2020).

Tests used:
Format in all cases: cell-based, human
HaCaT cells = assay: Agarose migration assay with HaCaT cells; conditions: 500 μM versus 0.1% DMSO, five days
Method: For this reason, an agarose migration assay was conducted in order to determine whether the increased cell growth is accompanied by increased chemotactic behavior.
Effect of Sandalore® long-term stimulation on morphology, growth, and migration processes in keratinocytes. A) Phase contrast image and PI stains of HaCaT cells and primary keratinocytes after stimulation with Sandalore® (500 μM) or 0.1% DMSO (control) for five days. On positive PI staining, the cell nuclei are stained red. Scale: 100 μm. B) Evaluation of the proliferation assay carried out with the CyQuant Cell Proliferation Kit on HaCaT cells after 5-day stimulation with 500 μM of Sandalore® or 0.1% DMSO (control). For the RNA interference experiments, the cells were transfected with siRNA or scRNA on the day before Sandalore® stimulation. Shown is the mean cell count including standard error relative to untreated cells. Mann-Whitney U test; n=3 experiments. *: p<0.05; **: p<0.01. S: Sandalore. C) Agarose assay for determination of migration of HaCaT cells. Top: Transmitted light images of HaCaT cells that have migrated in the direction of Sandalore® (500 μM) or 0.1% DMSO. The growth margin of the cells was surrounded in black. Scale: 250 μm. Bottom: Evaluation of the proliferation assay. The longest path traversed by the cells and the overgrown area were measured and compared to the control (0.1% DMSO). Paired two-sided T test. […]

[1] = test system: cAMP content of HaCaT cells; assay: cAMP assay (cAMP-Glo) in HaCaT cells
Method: In order to identify the calcium channel through which calcium ions flow from the outside into the cytosol of the skin cells, the CNG channel blocker L-cis-diltiazem was used. […] An additional cAMP assay was conducted in order to verify the data of pharmacological characterization by means of the calcium imaging technique. For this purpose, HaCaT cells with various Sandalore® concentrations were stimulated, and cAMP content was determined.
Pharmacological characterization of Sandalore®-induced signal cascade in human keratinocytes. A)-D). Shown are representative calcium imaging traces of primary keratinocytes in the presence of a blocker (blue). The horizontal bars correspond to the application times. 100 μM of ATP was used at the end of each measurement as a positive control stimulus. A) Measurement with calcium-free extracellular solution (+10 mM EGTA). B) Measurement with the adenylyl cyclase blocker SQ-22536 (100 μM). C) Use of the phospholipase-C blocker U-73122 (10 μM). 100 μM of histamine was taken as a positive control. D) Measurement with the CNG channel blocker L-cis-diltiazem (150 μM). E) Overview of pharmacological measurement of HaCaT cells and primary keratinocytes (Kera). […] Significance was determined between HaCaT cells stimulated with Sandalore® and stimulated with an equivalent volume of DMSO (0.2%). […]

IL-8 = assay: ELISA of secreted IL-8 in supernatant of HaCaT cells; conditions: 24-hour stimulation, 500 μM
Method: In order to investigate interleukin secretion, quantitative real-time PCR was first carried out. For this purpose, RNA from HaCaT cells was used that had previously been stimulated for 6 or 24 hours with Sandalore®. Detection was carried out with specific primers of various interleukins (IL-1α, IL-1β, IL-6, IL-8) and tumor necrosis factor (TNF▪). […] In order to corroborate the results, an ELISA assay was carried out, in which the secreted interleukins in the supernatant of the cells can be detected by means of an immunological reaction. By means of the assay used, secretion of the interleukins (IL-1α, IL-1β, IL-2, IL-4, IL-6, IL-8, IL-10, IL-12, and IL-17α), TNFα, γ-interferon (IFNγ), and granulocyte macrophage colony-stimulating factor (GMCSF) was investigated.
Investigation of interleukin secretion and phosphorylation of Akt protein kinase after Sandalore® stimulation. A) Investigation of the regulation of interleukins in HaCaT cells by means of qRT-PCR after stimulation with Sandalore® (500 μM) for 6 h and 24 h. 0.1% DMSO was used as a control. GAPDH was used as a reference gene, and the relative expression between untreated and stimulated cells was determined. Mean values including standard error. n=3 experiments. […] The measured optical density of the treated cells at 450 nm was expressed relative to the background. […]

**Q.** `CC1=CCC(CCC(C)C(C)O)C1(C)C` (stereo not shown) [Sandalore®] was tested. Which “chemotactic migration of the HaCaT cells” value (HaCaT cells) did it give?
**A.** significant chemotactic migration

**Q.** And the cAMP content ([1]; 10-minute stimulation with various concentrations)?
**A.** dose-dependent cAMP increase

**Q.** And the EC50 ([1]; 10-minute stimulation, 1 μM-10,000 μM, read-out: EC50 value of cAMP increase)?
**A.** 197 µM

**Q.** And the “secretion of IL-8 relative to the control (0.1% DMSO)” value (IL-8)?
**A.** not significantly higher than the control
